Source: ChEMBL document CHEMBL1201862, “PubChem BioAssay data set” (2004)
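Five compound concentrations were applied to cells in 96-well plates for 48 hours; endpoints were derived by simple linear interpolation of the resulting dose-response curve. Here, GI50 denotes the concentration required for 50% inhibition of growth.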 Activity calls are given as the source filed them. No stated cut-off is given here; in the data, active = GI50 up to about 1.1 µM and inactive = higher.

What was measured:
Assay in all cases: inhibition of tumour cell growth, NCI panel, 48 h
SNB-75 = test system: SNB-75
SNB-19 = test system: SNB-19
HL-60 = test system: HL-60
NCI-H522 = test system: NCI-H522
MOLT-4 = test system: MOLT-4
MDA-MB-231 = test system: MDA-MB-231
SK-OV-3 = test system: SK-OV-3
SK-MEL-5 = test system: SK-MEL-5
Malme-3M = test system: Malme-3M
BT-549 = test system: BT-549
HT-29 = test system: HT-29
UO-31 = test system: UO-31
786-0 = test system: 786-0
NCI-H23 = test system: NCI-H23
U-251 = test system: U-251
HOP-62 = test system: HOP-62
TK-10 = test system: TK-10
KM12 = test system: KM12
Hs-578T = test system: Hs-578T
MCF7 = test system: MCF7

Row | Compound | GI50 (SNB-75) | GI50 (SNB-19) | GI50 (HL-60) | GI50 (NCI-H522) | GI50 (MOLT-4) | GI50 (MDA-MB-231) | GI50 (SK-OV-3) | GI50 (SK-MEL-5) | GI50 (Malme-3M) | GI50 (BT-549) | GI50 (HT-29) | GI50 (UO-31) | GI50 (786-0) | GI50 (NCI-H23) | GI50 (U-251) | GI50 (HOP-62) | GI50 (TK-10) | GI50 (KM12) | GI50 (Hs-578T) | GI50 (MCF7)
1 | COc1ccc(OC(=O)N2C/C(=C\c3ccccc3)C(=O)/C(=C/c3ccccc3)C2)cc1 | 7.83 µM (inactive) | 4.62 µM (inactive) | 0.746 µM (active) | 2.05 µM (inactive) | 1.49 µM (inactive) | 3.21 µM (inactive) | 8.69 µM (inactive) | 3.09 µM (inactive) | 11.1 µM (inactive) | 2.24 µM (inactive) | 1.27 µM (inactive) | 10.2 µM (inactive) | 2.96 µM (inactive) | 5.05 µM (inactive) | 2.48 µM (inactive) | 8.15 µM (inactive) | 18.2 µM (inactive) | 1.43 µM (inactive) | 2.11 µM (inactive) | 0.697 µM (active)
2 | C=CCSC1=N/C(=C\c2ccccc2)C(=O)N1CC=C | 33.3 µM (inactive) | > 100 µM (inactive) | 5.24 µM (inactive) | 31.2 µM (inactive) | 2.7 µM (inactive) | 39.9 µM (inactive) | > 71.6 µM (inactive) | 17.8 µM (inactive) | 47 µM (inactive) | 40.7 µM (inactive) | 23.6 µM (inactive) | 40.5 µM (inactive) | 31.7 µM (inactive) | 56 µM (inactive) | 37.7 µM (inactive) | 99.1 µM (inactive) | > 74.6 µM (inactive) | 38.8 µM (inactive) | 43 µM (inactive) | 27.8 µM (inactive)
3 | Brc1ccc2[nH]cc(-c3csc(-c4c[nH]c5ccccc45)n3)c2c1 | 10.1 µM (inactive) | 3.32 µM (inactive) | 5.64 µM (inactive) | 1.81 µM (inactive) | 2.05 µM (inactive) | 2.17 µM (inactive) | 7.52 µM (inactive) | 2.24 µM (inactive) | 3.03 µM (inactive) | 5.7 µM (inactive) | 1.8 µM (inactive) | 2.93 µM (inactive) | 2.37 µM (inactive) | 2.39 µM (inactive) | 2.98 µM (inactive) | 4.34 µM (inactive) | 3.61 µM (inactive) | 2.3 µM (inactive) | 4.81 µM (inactive) | 2.13 µM (inactive)
4 | CN(C)CCCn1c2ccccc2c2cnccc21 | 66.1 µM (inactive) | 44.9 µM (inactive) | 23.6 µM (inactive) | 23.8 µM (inactive) | 24.4 µM (inactive) | 30.8 µM (inactive) | 66.2 µM (inactive) | 19.7 µM (inactive) | 28.6 µM (inactive) | 80.4 µM (inactive) | 25.1 µM (inactive) | 17.5 µM (inactive) | 27.7 µM (inactive) | 39.5 µM (inactive) | 39.1 µM (inactive) | 60.4 µM (inactive) | 26.8 µM (inactive) | 43.2 µM (inactive) | 42.7 µM (inactive) | 35.2 µM (inactive)
5 | Cc1cccc2c(N)c3cccc(C(=O)NCCCNCCN)c3nc12 | 0.946 µM (active) | 3.09 µM (inactive) | 12.2 µM (inactive) | < 0.01 µM (active) | 0.155 µM (active) | 0.593 µM (active) | 23.2 µM (inactive) | 7.11 µM (inactive) | 5.57 µM (inactive) | 14.6 µM (inactive) | 3.13 µM (inactive) | 19 µM (inactive) | 1.71 µM (inactive) | 1.01 µM (active) | 1.3 µM (inactive) | 3.53 µM (inactive) | 17.1 µM (inactive) | 4.8 µM (inactive) | 0.23 µM (active) | 0.679 µM (active)
